In ChEMBL document CHEMBL2069253, “Dipeptidyl peptidase-4 inhibitor with β-amino amide scaffold: synthesis, SAR and biological evaluation” (Bioorg Med Chem Lett, 2012):
Values belong to the molecule of their own block, whether it stands above or below them.

Tests used:
CYP3A4 [1] = target: T1, CYP3A4 (Homo sapiens, UniProt P08684); assay: Inhibition of CYP3A4 at 10 uM; assay type: ADME
Dipeptidyl peptidase 4 = Dipeptidyl peptidase 4 (Mus musculus, UniProt P28843); assay: Inhibition of mouse DPP4
Sequence of Dipeptidyl peptidase 4 (P28843 whole entry): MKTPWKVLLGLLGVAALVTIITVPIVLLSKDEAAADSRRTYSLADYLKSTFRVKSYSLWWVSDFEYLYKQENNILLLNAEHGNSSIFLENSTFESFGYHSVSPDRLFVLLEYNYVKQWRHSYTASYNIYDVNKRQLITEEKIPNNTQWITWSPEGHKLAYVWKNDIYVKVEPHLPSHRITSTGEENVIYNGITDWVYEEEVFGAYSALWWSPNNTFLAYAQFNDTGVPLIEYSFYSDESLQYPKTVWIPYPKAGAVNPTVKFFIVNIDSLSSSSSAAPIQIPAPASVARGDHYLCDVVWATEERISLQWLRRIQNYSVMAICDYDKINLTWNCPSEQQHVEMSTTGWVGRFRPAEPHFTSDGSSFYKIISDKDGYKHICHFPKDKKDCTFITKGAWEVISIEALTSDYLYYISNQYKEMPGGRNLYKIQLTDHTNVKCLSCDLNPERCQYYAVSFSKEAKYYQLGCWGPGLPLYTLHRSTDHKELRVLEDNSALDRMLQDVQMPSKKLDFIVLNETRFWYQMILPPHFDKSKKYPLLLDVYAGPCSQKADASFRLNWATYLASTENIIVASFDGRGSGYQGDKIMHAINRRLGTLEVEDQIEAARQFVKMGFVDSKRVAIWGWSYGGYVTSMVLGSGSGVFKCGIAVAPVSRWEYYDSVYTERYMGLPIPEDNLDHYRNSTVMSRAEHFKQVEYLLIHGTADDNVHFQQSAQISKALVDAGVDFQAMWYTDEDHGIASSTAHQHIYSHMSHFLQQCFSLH

CYP3A4 [2] = target: T1, CYP3A4; assay: Inhibition of CYP3A4 at 3 uM; assay type: ADME
Mus musculus [3] = species: Mus musculus; assay: animal or person; details: C57BL/6J, Plasma, po, 1 h, read-out: INH
Description: In vivo inhibition of DPP4 in C57BL/6J mouse plasma at 0.3 mg/kg, po measured after 1 hr

Mus musculus [4] = species: Mus musculus; assay: animal or person; details: C57BL/6J, Plasma, po, 1 h
Description: In vivo inhibition of DPP4 in po dosed C57BL/6J mouse plasma measured after 1 hr

Mus musculus [5] = species: Mus musculus; assay: animal or person; details: C57BL/6J, Plasma, po, 1 h, read-out: INH; remark: listed apart in the source
Description: In vivo inhibition of DPP4 in C57BL/6J mouse plasma at 10 mg/kg, po measured after 1 hr

Mus musculus [6] = species: Mus musculus; assay: animal or person; details: C57BL/6J, Plasma, po, 1 h, read-out: INH; remark: listed apart in the source
Description: In vivo inhibition of DPP4 in C57BL/6J mouse plasma at 1 mg/kg, po measured after 1 hr

CYP3A4 [7] = target: T1, CYP3A4; assay: Inhibition of CYP3A4 at 1 uM; assay type: ADME
Mus musculus [8] = species: Mus musculus; assay: animal or person; details: C57BL/6J, Plasma, po, 1 h, read-out: INH; remark: listed apart in the source
Description: In vivo inhibition of DPP4 in C57BL/6J mouse plasma at 3 mg/kg, po measured after 1 hr

Cytochrome P450 3A4 [9] = target: T2, Cytochrome P450 3A4 (Homo sapiens, UniProt P08684); assay: Inhibition of CYP3A4; assay type: ADME
T2 sequence (P08684 whole entry): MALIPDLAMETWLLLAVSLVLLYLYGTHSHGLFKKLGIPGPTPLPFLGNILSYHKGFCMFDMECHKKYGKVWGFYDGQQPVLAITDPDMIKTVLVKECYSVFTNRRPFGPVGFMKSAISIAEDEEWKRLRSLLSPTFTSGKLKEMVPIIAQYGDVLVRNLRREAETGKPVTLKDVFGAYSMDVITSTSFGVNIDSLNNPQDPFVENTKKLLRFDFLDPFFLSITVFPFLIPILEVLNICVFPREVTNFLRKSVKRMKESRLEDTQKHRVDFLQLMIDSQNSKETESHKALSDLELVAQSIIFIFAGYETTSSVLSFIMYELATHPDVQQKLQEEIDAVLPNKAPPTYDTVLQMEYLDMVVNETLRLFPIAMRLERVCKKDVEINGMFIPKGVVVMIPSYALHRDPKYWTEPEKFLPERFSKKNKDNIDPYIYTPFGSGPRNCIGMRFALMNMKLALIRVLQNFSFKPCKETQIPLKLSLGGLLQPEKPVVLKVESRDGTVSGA

[10] = Metabolic stability in rat liver microsomes assessed as compound remaining at 1 hr; assay type: ADME, Microsome; details: read-out: Stability
[11] = Protein binding in human; assay type: ADME, organism-based; details: plasma, read-out: PB (converted)
Mus musculus [12] = species: Mus musculus; assay: animal or person; details: C57BL/6J, po, 1 h, read-out: INH
Description: In vivo inhibition of DPP4 in C57BL/6J mouse at 1 mg/kg, po measured after 1 hr

Rattus norvegicus [13] = species: Rattus norvegicus; assay: animal or person; details: Sprague-Dawley, Plasma, po, 24 h, read-out: INH
Description: In vivo inhibition of DPP4 in Sprague-Dawley rat plasma at 10 mg/kg, po administered as single dose measured after 24 hrs

[14] = Stability in human plasma assessed as compound remaining at 1 hr; assay type: ADME, cell-free; details: read-out: Stability
Rattus norvegicus [15] = species: Rattus norvegicus; assay: animal or person; details: Sprague-Dawley, Plasma, po, 6 h, read-out: INH
Description: In vivo inhibition of DPP4 in Sprague-Dawley rat plasma at 10 mg/kg, po administered as single dose measured up to 6 hrs

[16] = Protein binding in mouse; assay type: ADME, organism-based; details: plasma, read-out: PB (converted)
[17] = Metabolic stability in human liver microsomes assessed as compound remaining at 1 hr; assay type: ADME, Microsome; details: read-out: Stability
[18] = Stability in mouse plasma assessed as compound remaining at 1 hr; assay type: ADME, cell-free; details: read-out: Stability
[19] = Half life in rat at 10 mg/kg, po; assay type: ADME, organism-based; design: dose 10 mg/kg, route oral; details: in vivo
[20] = Cmax in rat at 10 mg/kg, po; assay type: ADME, organism-based; design: dose 10 mg/kg, route oral; details: in vivo
[21] = Metabolic stability in mouse liver microsomes assessed as compound remaining at 1 hr; assay type: ADME, Microsome; details: read-out: Stability
[22] = Solubility of the compound at pH 1-9; assay type: physicochemical; details: buffer
Mus musculus [23] = species: Mus musculus; assay: animal or person; details: C57BL/6J, po, 2 h
Description: Antidiabetic activity in po dosed C57BL/6J mouse assessed as reduction in glucose AUC administered prior to glucose challenge measured up to 120 mins

Mus musculus [24] = species: Mus musculus; assay: animal or person; details: C57BL/6J, po, 1 h, read-out: INH; remark: listed apart in the source
Description: In vivo inhibition of DPP4 in C57BL/6J mouse at 10 mg/kg, po measured after 1 hr

Cytochrome P450 3A4 [25] = target: T2, Cytochrome P450 3A4; assay: Induction of CYP3A4 at 50 uM; assay type: ADME
Mus musculus [26] = species: Mus musculus; assay: animal or person; details: C57BL/6J, po, 1 h, read-out: INH; remark: listed apart in the source
Description: In vivo inhibition of DPP4 in C57BL/6J mouse at 3 mg/kg, po measured after 1 hr

[27] = Protein binding in rat; assay type: ADME, organism-based; details: plasma, read-out: PB (converted)
[28] = Oral bioavailability in rat at 10 mg/kg; assay type: ADME, organism-based; details: in vivo
[29] = Stability in rat plasma assessed as compound remaining at 1 hr; assay type: ADME, cell-free; details: read-out: Stability
[30] = Metabolic stability in dog liver microsomes assessed as compound remaining at 1 hr; assay type: ADME, Canis lupus familiaris, Microsome; details: read-out: Stability

T1 sequence (P08684 whole entry): as above

Compound: N[C@@H](CC(=O)N1CCN(c2ccc(F)cc2F)CC1)Cc1cc(F)c(F)cc1F
inhibition at 10 µM (CYP3A4 [1]): 100% | IC50 (Dipeptidyl peptidase 4): 0.0944 µM | inhibition at 3 µM (CYP3A4 [2]): 94% | inhibition in vivo at 0.3 mg/kg (Mus musculus [3]): 33.8% | ED50 (Mus musculus [4]): 0.87 mg/kg | inhibition in vivo at 10 mg/kg (Mus musculus [5]): 85.9% | inhibition in vivo at 1 mg/kg (Mus musculus [6]): 52.2% | inhibition at 1 µM (CYP3A4 [7]): 81.5% | inhibition in vivo at 3 mg/kg (Mus musculus [8]): 68.6%

IC50 (Cytochrome P450 3A4 [9]): 1 µM
Compound: N[C@@H](CC(=O)N1CCN(C(=O)c2ccccc2)CC1)Cc1cc(F)c(F)cc1F

IC50 (Cytochrome P450 3A4 [9]): 1 µM
Compound: N[C@@H](CC(=O)N1CCN(C(=O)c2ccc(F)cc2)CC1)Cc1cc(F)c(F)cc1F

IC50 (Cytochrome P450 3A4 [9]): 1 µM
Compound: N[C@@H](CC(=O)N1CCN(C(=O)c2ccc(O)cc2)CC1)Cc1cc(F)c(F)cc1F

IC50 (Cytochrome P450 3A4 [9]): 1 µM
Compound: N[C@@H](CC(=O)N1CCN(C(=O)c2ccc(OC(F)(F)F)cc2)CC1)Cc1cc(F)c(F)cc1F

IC50 (Cytochrome P450 3A4 [9]): 1 µM
Compound: N[C@@H](CC(=O)N1CCN(C(=O)c2ccc(C(F)(F)F)cc2)CC1)Cc1cc(F)c(F)cc1F

IC50 (Cytochrome P450 3A4 [9]): 1 µM
Compound: N[C@@H](CC(=O)N1CCN(C(=O)c2ccc(S(N)(=O)=O)cc2)CC1)Cc1cc(F)c(F)cc1F

IC50 (Cytochrome P450 3A4 [9]): 1 µM
Compound: N[C@@H](CC(=O)N1CCN(C(=O)c2ccc(C(=O)O)cc2)CC1)Cc1cc(F)c(F)cc1F

IC50 (Cytochrome P450 3A4 [9]): 1 µM
Compound: N[C@@H](CC(=O)N1CCN(C(=O)c2cccc(C(=O)O)c2)CC1)Cc1cc(F)c(F)cc1F

IC50 (Cytochrome P450 3A4 [9]): 1 µM
Compound: CN1CCN(c2ccc(C(=O)N3CCN(C(=O)C[C@H](N)Cc4cc(F)c(F)cc4F)CC3)cc2)CC1

Compound: N[C@@H](CC(=O)N1CCN(C(=O)c2ccccn2)CC1)Cc1cc(F)c(F)cc1F
remaining at 1 h [10]: 85% | fraction unbound [11]: 0.497 | inhibition in vivo at 1 mg/kg (Mus musculus [12]): 32.5% | inhibition in vivo at 10 mg/kg (Rattus norvegicus [13]): 30% | remaining at 1 h [14]: 97% | inhibition in vivo at 10 mg/kg (Rattus norvegicus [15]): 60% | fraction unbound [16]: 0.557 | remaining at 1 h [17]: 89% | remaining at 1 h [18]: > 97% | half-life [19]: 4.74 h | Cmax [20]: 2030 ng/mL | remaining at 1 h [21]: 79% | solubility [22]: > 10000 µg/mL | ED30 (Mus musculus [23]): 0.38 mg/kg | inhibition in vivo at 10 mg/kg (Mus musculus [24]): 84.6% | Activity (Cytochrome P450 3A4 [25]): < 10% | inhibition in vivo at 3 mg/kg (Mus musculus [26]): 59.1% | fraction unbound [27]: 0.729 | bioavailability [28]: 65.3% | remaining at 1 h [29]: > 97% | remaining at 1 h [30]: 88%
